Test systems include CAKI-1 renal; U251 CNS; SK-MEL-28 melanoma; SK-MEL-2 melanoma; KM12 colon; OVCAR-5 ovarian; SN12C renal; RPMI-8226 leukemia; A498 renal.
Assay in all cases: NCI anticancer screen, dose series, 48 h

The structures appear in SMILES notation.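 48-hour exposure; five concentrations; linearly interpolated endpoints. The concentration for 50% growth inhibition is given as GI50. TGI: concentration producing complete growth inhibition.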

In the case of `COC(=O)N(C(=O)OC)C(C(=O)O)C(C)C` (stereo unspecified), the TGI in the assay with CAKI-1 renal, in the assay with U251 CNS, with SK-MEL-28 melanoma, with SK-MEL-2 melanoma, in the assay on KM12 colon and in the assay on OVCAR-5 ovarian was greater than 100 µM each time. Moreover, the TGI in the assay on SN12C renal is greater than 100 µM.

On to `O=C(O)CCCCCCC[C@H]1S[C@H]1CCCCCCO`, for which the TGI in the assay with CAKI-1 renal, in the assay with U251 CNS, with RPMI-8226 leukemia, in the assay on SK-MEL-28 melanoma, with SK-MEL-2 melanoma and with KM12 colon was greater than 100 µM each time. Moreover, the TGI in the assay on OVCAR-5 ovarian is greater than 100 µM.

Turning to `O=C1c2ccccc2C(Br)(Br)c2ccccc21`, the TGI in the assay on U251 CNS was greater than 31.6 µM; in the assay on SK-MEL-28 melanoma it was greater than 31.6 µM; in the assay with SK-MEL-2 melanoma, greater than 31.6 µM; in the assay on KM12 colon, greater than 100 µM; in the assay on OVCAR-5 ovarian it was greater than 31.6 µM; in the assay with SN12C renal, greater than 31.6 µM.

`C[N-]c1nnnn1C.[Au+].c1ccc([PH+](c2ccccc2)c2ccccc2)cc1`: the GI50 was 2.39 µM with CAKI-1 renal; 2.28 µM with U251 CNS; 1.29 µM with RPMI-8226 leukemia; 1.39 µM with SK-MEL-28 melanoma; 1.66 µM in the assay on SK-MEL-2 melanoma; 7.09 µM with KM12 colon. In addition, the values for the GI50 in the assay on OVCAR-5 ovarian and in the assay on SN12C renal were 19.1 µM and 3.46 µM, respectively. Further, the TGI stood at 5 µM in the assay on CAKI-1 renal; 5.56 µM in the assay on U251 CNS; 4.54 µM in the assay on RPMI-8226 leukemia; 3.13 µM in the assay on SK-MEL-28 melanoma; 3.78 µM in the assay with SK-MEL-2 melanoma; 28.6 µM in the assay on KM12 colon. Also, the TGI in the assay with OVCAR-5 ovarian came to 34 µM; in the assay with SN12C renal, 7.92 µM.

`CN(C)CC(C)(C)/C(=N\Nc1ccccc1)c1ccccc1`: the TGI with U251 CNS, in the assay on RPMI-8226 leukemia, with SK-MEL-28 melanoma, with A498 renal, in the assay on SK-MEL-2 melanoma and in the assay with KM12 colon was greater than 100 µM in each case. Further, the TGI in the assay with OVCAR-5 ovarian and in the assay with SN12C renal was greater than 100 µM in each case.

Consider `O=c1nc(/C=C/c2ccccc2Cl)cc2n1CCN2CCO`, for which the TGI in the assay on CAKI-1 renal, with RPMI-8226 leukemia, in the assay with SK-MEL-28 melanoma, with SK-MEL-2 melanoma, in the assay on KM12 colon and with OVCAR-5 ovarian was greater than 100 µM each time. The molecule also came in with a TGI with SN12C renal greater than 100 µM.

`Cc1cc2c(ccc3c(C)cc(=O)oc32)o1`: the TGI in the assay with CAKI-1 renal, in the assay on U251 CNS, in the assay with RPMI-8226 leukemia, with SK-MEL-28 melanoma, in the assay on SK-MEL-2 melanoma and in the assay with KM12 colon was greater than 100 µM throughout. The TGI in the assay with OVCAR-5 ovarian and in the assay on SN12C renal was greater than 100 µM throughout.

With `COc1ccc2c(CN3CCCCC3CO)cc3cc(OC)c(OC)cc3c2c1` (stereo unspecified), the TGI in the assay on U251 CNS turned out to be 18.3 µM; with RPMI-8226 leukemia it was 33 µM; in the assay on SK-MEL-28 melanoma, 18.6 µM; in the assay on A498 renal, 12.7 µM; with SK-MEL-2 melanoma, 17.8 µM; with KM12 colon, 16.2 µM. Also, the TGI was 12 µM in the assay on OVCAR-5 ovarian and 26.2 µM with SN12C renal.

For the molecule `C=C(COC(C)=O)CC(OC(C)=O)c1ccccc1` (stereo unspecified), the TGI in the assay on U251 CNS, in the assay with RPMI-8226 leukemia, in the assay with SK-MEL-28 melanoma, in the assay on A498 renal, in the assay on SK-MEL-2 melanoma and in the assay with KM12 colon was greater than 100 µM in each case. For the same molecule, the TGI with OVCAR-5 ovarian and in the assay on SN12C renal was greater than 100 µM in each case.

Regarding `CCCCCC(=O)C(C)C1=Nc2nnc(CCCCCCCc3nnc4n3C(=O)C(C(C)C(=O)CCCCC)=N4)n2C1=O` (stereo unspecified), the TGI in the assay on CAKI-1 renal, in the assay on U251 CNS, in the assay with RPMI-8226 leukemia, in the assay with SK-MEL-28 melanoma, in the assay on KM12 colon and in the assay on OVCAR-5 ovarian was greater than 100 µM each time. Besides, in the assay on SN12C renal, the TGI was greater than 100 µM.

For the molecule `CC1CCC2(CC1)NN=c1s/c(=C\c3ccc(O)cc3)c(=O)n1N2` (stereo unspecified), the TGI with U251 CNS, with RPMI-8226 leukemia, in the assay on SK-MEL-28 melanoma, with KM12 colon and with SN12C renal was greater than 100 µM each time.

`COc1ccc(OC)c2c1CC(C(=O)O)(C(=O)O)CC2=O`: the TGI in the assay with CAKI-1 renal, in the assay with U251 CNS, in the assay with SK-MEL-28 melanoma, with SK-MEL-2 melanoma, with KM12 colon and with OVCAR-5 ovarian was greater than 100 µM throughout. For the same molecule, the TGI in the assay with SN12C renal is greater than 100 µM.

`COc1ccc2c(c1)N1CCc3cc(OC)c(OC)cc3C1C2` (stereo unspecified): the TGI in the assay with CAKI-1 renal, with U251 CNS, in the assay on SK-MEL-28 melanoma, in the assay on A498 renal, with SK-MEL-2 melanoma and in the assay with KM12 colon was greater than 100 µM each time. Moreover, the TGI in the assay on SN12C renal is greater than 100 µM.

(Values after PubChem BioAssay (NCI).)
